These results are taken from patent US12509439B2, “Anti-malarial agents” (UNIVERSITY OF KENTUCKY RESEARCH FOUNDATION, priority 2020, dated 2025).

Series [1] concerns P. falciparum transgenic reporter strain NF54-HGL. The series can be described thus: Standard membrane feeding assay (transmission blocking, oocysts in mosquito midgut). It is filed as cell-based. As to conditions: Plasmodium falciparum, NF54, read-out: IC50, transmission of P. falciparum from infected blood into mosquitos (number of oocysts in the mosquito midgut). Here is the method:
Standard Membrane Feeding Assays (SMFA) were performed using P. falciparum transgenic reporter strain NF54-HGL that expresses a firefly luciferase gene from an hsp70 promoter (Vos et al., 2015, Scientific Reports, 5). Stage V gametocytes were pre-incubated with test compound prior to mosquito feeding. Test compound is dissolved in DMSO to achieve a stock solution of 10 mM that was serially diluted in DMSO to achieve concentrations […] above the final test concentration. Subsequently, 10 μl of diluted compound in DMSO is then added to 990 μl pre-warmed RPMI 1640 medium supplemented with 367 μM hypoxanthine, 25 mM HEPES and 25 mM NaHCO3 (‘incomplete medium’). 40 μl of this intermediate dilution is added to 360 μl of parasite culture and incubated for 48 hrs at 37° C. in Eppendorf tubes, resulting in 0.1% final DMSO concentration. Hereafter, 300 μl of the gametocyte culture/compound mix is added to 180 μl of packed red blood cells and centrifuged for 20 seconds at 10,000×g. […] Mosquitoes are processed for luminescence measurements to determine relative oocyst intensities as described previously (Stone et al., 2014, Journal of Infectious Diseases, 5, 16). Data is analyzed by fitting a four-parameter logistic regression model using maximum likelihood to find the best fit as described previously (Dechering et al., 2017, Scientific Reports, 7, 1) as shown under FIG. 5.

The next series relates to malaria infection. As to conditions: human volunteers, single dose of 600 milligrams; cited from earlier work.
For series [2] the following is noted: phase 1a clinical trials; cited from earlier work.

Regarding `N#Cc1cc(NC(=O)[C@H]2c3ccccc3C(=O)N(CC(F)(F)F)[C@@H]2c2ccc(OC3CC3)nc2)ccc1F` (single isomer, unassigned) [(1a)], the IC50 in series [1] came out at 323 nM.

Turning to `N#Cc1cc(NC(=O)[C@H]2c3ccccc3C(=O)N(CC(F)(F)F)[C@@H]2c2cccnc2)ccc1F` [(+) SJ-733, 4-Isoquinolinecarboxamide, N-(3-cyano-4-fluorophenyl)-1,2,3,4-tetrahydro-1-oxo-3-(3-pyridinyl)-2-(2,2,2-trifluoroethyl)-, (3S,4S)-, reference compound], the Parasitological cure result in the series with malaria infection is listed as “parasitological cure was not achieved”. In series [2], the “Metabolite formation in human pharmacokinetic studies” value is “significant formation of an inactive N-oxide metabolite”.
